Measured values published in patent US20230146455A1, “TREATMENT OF INFLAMMATORY DISEASES WITH PEPTIDES AND PHARMACEUTICAL COMPOSITIONS” (Yuyu Pharma, Inc., priority 2020, published 2023).
Values joined by “and” are separate entries in the source; they are usually repeats but may differ in a detail not shown here. Identical values can stand only once. Where a SMILES comes first, the peptide text is derived from it. [ ]: non-standard residue; d: D form. Hyp = O=C(O)[C@@H]1C[C@@H](O)CN1

System: human PBMCs
Experiment: PBMC cell counts (total, live, viability; trypan blue, Countess) with and without LPS and test articles (Example 9)
Assay type: cell-based
Experimental: Treatment Human PBMCs were pretreated with YY-101, YDE-011 and YDE-043 or reference compound; Xiidra® at various concentration (ranging from 1 nM to 100 uM) for 2 h before stimulation. An equal volume of 0.5% DMSO was used as a vehicle control. Then, the cells were treated with LPS at 5 ug/ml. The supernatants from treated cells were harvested at 24 h and placed in a 96 well for Luminex cytokine & chemokine profiling using a Luminex 200 multiplex assay (Luminex; R&D system, USA).
The main study arm with triplicate wells per group in a 24-well plate: • 1. Blank • 2. PBMC: 0.5% DMSO • 3. PBMC+LPS (5 ug/ml) • 4. PBMC+YY-101 100 uM • 5. PBMC+YY-101 10 uM • 6. PBMC+YY-101 1 uM • 7. PBMC+YY-101 0.1 uM • 8. PBMC+YY-101 0.01 uM • 9. PBMC+LPS (5 ug/ml)+Xiidra®100 uM • 10. PBMC+LPS (5 ug/ml)+Xiidra® 10 uM • 11. PBMC+LPS (5 ug/ml)+Xiidra® 1 uM • 12. PBMC+LPS (5 ug/ml)+Xiidra®0.1 uM • 13. PBMC+LPS (5 ug/ml)+Xiidra®0.01 uM • 14. PBMC+LPS (5 ug/ml)+Xiidra®0.001 uM • 15. PBMC+LPS (5 ug/ml)+YY-101 100 uM • 16. PBMC+LPS (5 ug/ml)+YY-101 10 uM • 17. PBMC+LPS (5 ug/ml)+YY-101 1 uM • 18. PBMC+LPS (5 ug/ml)+YY-101 0.1 uM • 19. PBMC+LPS (5 ug/ml)+YY-101 0.01 uM • 20. PBMC+LPS (5 ug/ml)+YY-101 0.001 uM • 21. PBMC+LPS (5 ug/ml)+YDE-011 100 uM • 22. PBMC+LPS (5 ug/ml)+YDE-011 10 uM • 23. PBMC+LPS (5 ug/ml)+YDE-011 1 uM • 24. PBMC+LPS (5 ug/ml)+YDE-011 0.1 uM • 25. PBMC+LPS (5 ug/ml)+YDE-011 0.01 uM • 26. PBMC+LPS (5 ug/ml)+YDE-011 0.001 uM • 27. PBMC+LPS (5 ug/ml)+YDE-043 100 uM • 28. PBMC+LPS (5 ug/ml)+YDE-043 10 uM • 29. PBMC+LPS (5 ug/ml)+YDE-043 1 uM • 30. PBMC+LPS (5 ug/ml)+YDE-043 0.1 uM • 31. PBMC+LPS (5 ug/ml)+YDE-043 0.01 uM • 32. PBMC+LPS (5 ug/ml)+YDE-043 0.001 uM
The number of PBMCs was measured after 24 hr of treatment. The culture both and trypan blue were diluted 1:1 and 10 ul was added to Countess cell counting chamber (Thermo fisher, USA). The number of PBMCs was measured using a Countess automated cell counter (Thermo fisher, USA).

[1] = PBMC + LPS(5 ug/ml) + compound 0.001 uM, 24 hr
[2] = PBMC + LPS(5 ug/ml) + compound 0.01 uM, 24 hr
[3] = PBMC + LPS(5 ug/ml) + compound 0.1 uM, 24 hr
[4] = PBMC + LPS(5 ug/ml) + compound 1 uM, 24 hr
[5] = PBMC + LPS(5 ug/ml) + compound 10 uM, 24 hr
[6] = PBMC + LPS(5 ug/ml) + compound 100 uM, 24 hr
[7] = PBMC + LPS(5 ug/ml) + test article 0.001 uM, Mean
[8] = PBMC + LPS(5 ug/ml) + test article 0.001 uM, single replicates
[9] = PBMC + LPS(5 ug/ml) + test article 0.01 uM, Mean
[10] = PBMC + LPS(5 ug/ml) + test article 0.01 uM, single replicates
[11] = PBMC + LPS(5 ug/ml) + test article 0.1 uM, Mean
[12] = PBMC + LPS(5 ug/ml) + test article 0.1 uM, single replicates
[13] = PBMC + LPS(5 ug/ml) + test article 1 uM, Mean
[14] = PBMC + LPS(5 ug/ml) + test article 1 uM, single replicates
[15] = PBMC + LPS(5 ug/ml) + test article 10 uM, Mean
[16] = PBMC + LPS(5 ug/ml) + test article 10 uM, single replicates

SMILES: CC(C)C[C@H](NC(=O)CNC(=O)[C@H](CC(C)C)NC(=O)[C@H](CCC(N)=O)NC(=O)CNC(=O)[C@@H]1C[C@@H](O)CN1)C(=O)N[C@@H](C)C(=O)NCC(=O)N1CCC[C@H]1C(=O)N[C@@H](CCCCN)C(=O)O [YDE-011] (H-[Hyp]GQLGLAGPK-OH)
- Live cell [1]: 5.4 ± 0.4 10^5/ml
- Total cell [1]: 6.3 ± 0.2 10^5/ml
- Live cell [2]: 5.9 ± 0.4 10^5/ml
- Total cell [2]: 7.3 ± 0.4 10^5/ml
- Live cell [3]: 5.8 ± 0.5 10^5/ml
- Total cell [3]: 7.1 ± 0.7 10^5/ml
- Live cell [4]: 5.0 ± 0.2 10^5/ml
- Total cell [4]: 6.4 ± 0.3 10^5/ml
- Live cell [5]: 5.3 ± 0.3 10^5/ml
- Total cell [5]: 6.0 ± 0.4 10^5/ml
- Live cell [6]: 6.1 ± 0.0 10^5/ml
- Total cell [6]: 8.2 ± 0.4 10^5/ml
- Live cell [7]: 5.4 10^5/ml
- Live cell (10^5/ml) [7]: 5.4 10^5/ml
- Live cell, Mean [7]: 5.4 10^5/ml
- Live cell (PBMC + LPS(5 ug/ml) + test article 0.001 uM, individual replicates): 4.5 10^5/ml and 5.8 10^5/ml (2×)
- Live cell (PBMC + LPS(5 ug/ml) + test article 0.001 uM, individual replicates (1st, 2nd, 3rd)): 4.5 10^5/ml and 5.8 10^5/ml (2×)
- Live cell [8]: 4.5 10^5/ml and 5.8 10^5/ml (2×)
- Live cell (10^5/ml) [8]: 4.5 10^5/ml and 5.8 10^5/ml (2×)
- Live cell (PBMC + LPS(5 ug/ml) + test article 0.001 uM, single replicates (1st, 2nd, 3rd)): 4.5 10^5/ml and 5.8 10^5/ml (2×)
- Live cell [9]: 5.9 10^5/ml
- Live cell (10^5/ml) [9]: 5.9 10^5/ml
- Live cell, Mean [9]: 5.9 10^5/ml
- Live cell (PBMC + LPS(5 ug/ml) + test article 0.01 uM, individual replicates): 6.2 10^5/ml and 5.1 10^5/ml and 6.3 10^5/ml
- Live cell (PBMC + LPS(5 ug/ml) + test article 0.01 uM, individual replicates (1st, 2nd, 3rd)): 6.2 10^5/ml and 5.1 10^5/ml and 6.3 10^5/ml
- Live cell [10]: 6.3 10^5/ml and 6.2 10^5/ml and 5.1 10^5/ml
- Live cell (10^5/ml) [10]: 6.3 10^5/ml and 6.2 10^5/ml and 5.1 10^5/ml
- Live cell (PBMC + LPS(5 ug/ml) + test article 0.01 uM, single replicates (1st, 2nd, 3rd)): 6.2 10^5/ml and 5.1 10^5/ml and 6.3 10^5/ml
- Live cell [11]: 5.8 10^5/ml
- Live cell (10^5/ml) [11]: 5.8 10^5/ml
- Live cell, Mean [11]: 5.8 10^5/ml
- Live cell (PBMC + LPS(5 ug/ml) + test article 0.1 uM, individual replicates): 6.6 10^5/ml and 5.0 10^5/ml and 5.7 10^5/ml
- Live cell (PBMC + LPS(5 ug/ml) + test article 0.1 uM, individual replicates (1st, 2nd, 3rd)): 6.6 10^5/ml and 5.0 10^5/ml and 5.7 10^5/ml
- Live cell [12]: 6.6 10^5/ml and 5.0 10^5/ml and 5.7 10^5/ml
- Live cell (10^5/ml) [12]: 6.6 10^5/ml and 5.0 10^5/ml and 5.7 10^5/ml
- Live cell (PBMC + LPS(5 ug/ml) + test article 0.1 uM, single replicates (1st, 2nd, 3rd)): 6.6 10^5/ml and 5.0 10^5/ml and 5.7 10^5/ml
- Live cell [13]: 5.0 10^5/ml
- Live cell (10^5/ml) [13]: 5.0 10^5/ml
- Live cell, Mean [13]: 5.0 10^5/ml
- Live cell (PBMC + LPS(5 ug/ml) + test article 1 uM, individual replicates): 5.5 10^5/ml and 4.8 10^5/ml (2×)
- Live cell (PBMC + LPS(5 ug/ml) + test article 1 uM, individual replicates (1st, 2nd, 3rd)): 5.5 10^5/ml and 4.8 10^5/ml (2×)
- Live cell [14]: 5.5 10^5/ml and 4.8 10^5/ml (2×)
- Live cell (10^5/ml) [14]: 5.5 10^5/ml and 4.8 10^5/ml (2×)
- Live cell (PBMC + LPS(5 ug/ml) + test article 1 uM, single replicates (1st, 2nd, 3rd)): 5.5 10^5/ml and 4.8 10^5/ml (2×)
- Live cell [15]: 5.3 10^5/ml
- Live cell (10^5/ml) [15]: 5.3 10^5/ml
- Live cell, Mean [15]: 5.3 10^5/ml
- Live cell (PBMC + LPS(5 ug/ml) + test article 10 uM, individual replicates): 5.4 10^5/ml and 5.8 10^5/ml and 4.7 10^5/ml
- Live cell (PBMC + LPS(5 ug/ml) + test article 10 uM, individual replicates (1st, 2nd, 3rd)): 5.4 10^5/ml and 5.8 10^5/ml and 4.7 10^5/ml
- Live cell [16]: 5.4 10^5/ml and 5.8 10^5/ml and 4.7 10^5/ml
- Live cell (10^5/ml) [16]: 5.4 10^5/ml and 5.8 10^5/ml and 4.7 10^5/ml
